Our source for the Activity and inhibition values is ChEMBL document CHEMBL5053541, “Andrographolide derivative as antagonist of vitamin D receptor to induce lipidation of microtubule associate protein 1 light chain 3 (LC3)” (Bioorg Med Chem, 2021).

The source made the active and inactive calls. The rule behind the calls is not given here.

Assay [1] has as its system N2a. Briefly: Induction of autophagy in MPP+-induced mouse N2a cells assessed as increase in LC3-II expression at 10 uM measured after 6 hrs by western blot analysis. The format is functional, cell-based. (In general: In western blotting, separated proteins are transferred to a membrane and probed.)
Assay [2] concerns SH-SY5Y. Put plainly: Neuroprotective activity against SNCA-induced neurotoxicity in human SH-SY5Y cells transfected with adenovirus expressing […] SNCA assessed as inhibition of p62 expression at 100 nM measured after 6 hrs by western blot analysis. The format is functional, cell-based.
In assay [3] the target is T1, Vitamin D3 receptor (Homo sapiens) (UniProt P11473).
T1 sequence (whole entry): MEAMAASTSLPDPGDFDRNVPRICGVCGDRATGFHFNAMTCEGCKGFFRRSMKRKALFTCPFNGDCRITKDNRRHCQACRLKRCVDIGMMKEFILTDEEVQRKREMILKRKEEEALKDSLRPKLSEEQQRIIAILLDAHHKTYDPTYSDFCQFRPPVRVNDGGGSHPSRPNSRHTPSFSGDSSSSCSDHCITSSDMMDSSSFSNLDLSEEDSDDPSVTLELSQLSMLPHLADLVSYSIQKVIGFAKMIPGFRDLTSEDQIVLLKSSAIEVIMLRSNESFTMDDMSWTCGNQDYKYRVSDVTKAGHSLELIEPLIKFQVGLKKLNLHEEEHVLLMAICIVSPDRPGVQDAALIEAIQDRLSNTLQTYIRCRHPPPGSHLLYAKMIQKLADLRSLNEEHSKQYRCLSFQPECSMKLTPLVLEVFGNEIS
Put plainly: Antagonist activity at VDR in human HeLa cells assessed as increase in ratio of LC3-II to LC-I at 100 nM in presence or absence of calcitriol measured after 4 hrs by western blot analysis. The assay is classed as cell-based.

The target of assay [4] is T1, Vitamin D3 receptor (Homo sapiens). Briefly: Antagonist activity at VDR in human HeLa cells assessed as decrease in mTOR phosphorylation at Ser2448 residue at 100 nM in presence or absence of calcitriol measured after 4 hrs by western blot analysis. The format is cell-based.
The target is the same in assay [5]. Briefly: Antagonist activity at VDR in human HeLa cells assessed as decrease in p62 expression at 100 nM in presence or absence of calcitriol measured after 4 hrs by western blot analysis. Conditions: filed as antagonist. The format is cell-based.
The test system of assay [6] is SH-SY5Y. Put plainly: Neuroprotective activity against SNCA-induced neurotoxicity in human SH-SY5Y cells transfected with adenovirus expressing […] SNCA assessed as reduction in […] SNCA expression at 100 nM measured after 6 hrs by western blot analysis. The assay is classed as functional, cell-based.
Assay [7] has as its system N2a. Put plainly: Effect on SNCA oligomerization in mouse N2a cells transfected with Syn-luc1 and Syn-luc2 plasmids assessed as reduction in SNCA self-oligomerization by measuring luciferase activity at 100 nM measured after 6 hrs by bioluminescent protein-fragment complementation assay. The assay is classed as functional, cell-based.
Assay [8] has as its system N2a. Briefly: Induction of autophagy in MPP+-induced mouse N2a cells infected with pAde-LC3-EGFP- mCherry assessed as formation of mCherry foci by measuring increased in red fluorescence at 500 nM measured after 4 hrs by Hoechst staining based confocal microscope analysis. The format is functional, cell-based.
Assay [9] concerns SH-SY5Y. Briefly: Neuroprotective activity against A53T SNCA-induced cytotoxicity in human SH-SY5Y cells assessed as decrease in A53T SNCA induced LDH release at 100 nM by LDH assay. The assay is classed as functional, cell-based. In general terms: LDH leaks from cells whose membrane has failed.
The subject of assay [10] is SH-SY5Y. Put plainly: Neuroprotective activity against SNCA-induced neurotoxicity in human SH-SY5Y cells transfected with adenovirus expressing […] SNCA assessed as inhibition of mTOR activation at 100 nM measured after 6 hrs by western blot analysis. The assay is classed as functional, cell-based.

Regarding `CCC(=O)N1CCN(c2ccc(-n3c(=O)ccc4cnc5ccc(-c6cnc7ccccc7c6)cc5c43)cc2C(F)(F)F)CC1`, the result in [1], in assay [5], in assay [6], in [7], in assay [8] and in [9] was Active. The inhibition result in [2] and in assay [10] was “Active” in each case. The result in [3] and in [4] was inactive.
